From ChEMBL document CHEMBL1153094, “Spectroscopic and biological studies of a novel synthetic chlorin derivative with prospects for use in PDT” (Bioorg Med Chem, 2009) come the findings set out here.

SMILES strings stand for the structures. The source made the active and inactive calls. The calls are words filed in the database; no cut-off is given here.

Data set [1] deals with Lewis lung carcinoma cell line. The data set can be described thus: Antiproliferative activity against mouse LLC cells assessed as nuclear damage at 2 uM in liposomal delivery system after 12 hrs pretreated with 15 J/cm2 red light-irradiation by fluorescence microscopy. Format: functional, cell-based.
In data set [2] the test system is Lewis lung carcinoma cell line. The data set can be described thus: Antiproliferative activity against mouse LLC cells assessed as survival fraction at 0.5 uM in liposomal delivery system after 12 hrs pretreated with 15 J/cm2 red light-irradiation by MTS reduction assay. In kind it is functional. A general note: Formazan colour is commonly taken as a measure of viable cells.

Data set [3] is described as follows: Cytotoxicity against mouse LLC cells assessed as survival fraction at 0.1 to 1.5 uM after 4 hrs by MTS reduction assay under dark condition. Conditions: lewis lung carcinoma. In kind it is cell-based.
Data set [4] has as its system Lewis lung carcinoma cell line. In words: Antiproliferative activity against mouse LLC cells assessed as F-actin construction damage at 2 uM in liposomal delivery system after 12 hrs pretreated with 15 J/cm2 red light-irradiation by fluorescence microscopy. In kind it is functional, cell-based.
The nature of data set [5]: Cytotoxicity against mouse LLC cells assessed as change in cell morphology at 2 uM after 12 hrs by fluorescence microscopy under dark condition. Format: cell-based. The settings on record: lewis lung carcinoma.
Data set [6] concerns Lewis lung carcinoma cell line. The data set can be described thus: Antiproliferative activity against mouse LLC cells assessed as survival fraction at 0.5 uM dissolved in DMSO after 12 hrs pretreated with 15 J/cm2 red light-irradiation by MTS reduction assay. In kind it is functional.
For data set [7], the system named is Lewis lung carcinoma cell line. The data set can be described thus: Antiproliferative activity against mouse LLC cells assessed as survival fraction at 0.5 uM dissolved in DMSO after 4 hrs pretreated with 15 J/cm2 red light-irradiation by MTS reduction assay. In kind it is functional.
Data set [8] relates to Lewis lung carcinoma cell line. In words: Antiproliferative activity against mouse LLC cells assessed as survival fraction at 0.5 uM after 4 hrs pretreated with 15 J/cm2 red light-irradiation by MTS reduction assay. In kind it is functional.
In data set [9] the test system is Lewis lung carcinoma cell line. In words: Antiproliferative activity against mouse LLC cells assessed as survival fraction at 0.5 uM in liposomal delivery system after 4 hrs pretreated with 15 J/cm2 red light-irradiation by MTS reduction assay. Format: functional.
Data set [10] relates to Lewis lung carcinoma cell line. In words: Antiproliferative activity against mouse LLC cells assessed as DNA […] at 2 uM in liposomal delivery system after 12 hrs pretreated with 15 J/cm2 red light-irradiation by fluorescence microscopy. Format: functional, cell-based.
Data set [11] is described as follows: Cytotoxicity against mouse LLC cells assessed as survival fraction at 0.1 to 1.5 uM after 12 hrs by MTS reduction assay under dark condition. In kind it is cell-based. The settings on record: lewis lung carcinoma.
Data set [12] concerns Lewis lung carcinoma cell line. In words: Antiproliferative activity against mouse LLC cells assessed as survival fraction at 5 uM after 24 hrs pretreated with 15 J/cm2 red light-irradiation by MTS reduction assay. Format: functional.

For the compound `CCCCCCCC1c2cc3[nH]c(cc4nc(cc5[nH]c(cc(n2)[C@]1(C)CC(=O)N(C)C)c(C)c5CCC(=O)O)C(CCC(=O)O)=C4C)cc3C` (mixture of isomers), the outcome in [1], in [4] and in [10] was Active. In addition, the Activity in [2] is reported as 34.8%; in [3], “Non-toxic”; in [5] it was “Toxic”; in data set [6] it was 74.4%; in data set [7], 70.6%; in data set [8], 22.3%. For the same compound, the Activity in data set [9] is on record as 20.3%; in data set [11] it was “Non-toxic”.

As for `C=CC1=C(C)c2cc3[nH]c(cc4nc(cc5[nH]c(cc1n2)c(C)c5CCC(=O)[O-])C(CCC(=O)[O-])=C4C)c(C)c3C=C.[Na+].[Na+]` [PROTOPORPHYRIN DISODIUM], the Activity in [12] worked out at 60.7%.
